System: D1 cells
Assay: Differential gene expression analysis (Mu6500 GeneChip) in LPS- and TNF-α-stimulated versus unstimulated D1 cells
Format: cell-based, mouse
Design: key: NC: No change in the level of expression; I: induced (detected only in stimulated cells); U: up-regulated; D: down-regulated; S: suppressed (detected only in unstimulated cells)
Conditions: no asterisk=fold change, *=AvgDiff after stimulation, **=AvgDiff in baseline
Protocol: Cells and reagents. The D1 cells were derived from murine splenic DC and maintained in vitro in IMDM supplemented with 30% R1 conditional medium as previously described. LPS (Escherichia coli sero- type 026:B6) was purchased from Sigma Chemical Co. and used at 10 μg/ml. Muriner TNF-α (Genetech Inc., San Francisco. Calif.) was used at 100 U/ml. Cells were grown and harvested at the same time.
RNA extraction, amplification and labeling for hybridization. Antisense cRNA was prepared following Affymetrix (Santa Clara, Calif.) recommendations. Briefly, mRNA was directly extracted from frozen pellets using the DIRECT OLIGOTEX KIT (i.e., column chromatography kit for mRNA purification) from Qiagen (Chatsworth, Calif.) and converted to double-stranded cDNA using a modified oligo dT primer with a 5′T7 RNA polymerase promoter sequence and the SUPER-SCRIPT CHOICE SYSTEM (i.e., reverse transcriptase system) for cDNA synthesis (Life Technologies, Gaithesbourg, Md.). Double-stranded cDNA (0.5 μg) was transcribed to cRNA with the T7 RNA polymerase (T7 MEGASCRIPT KIT (i.e., phage specific in vitro transcription kit); Ambion, Austin, Tex.) in the presence of a mixture of unlabeled ATP, CTP, GTP, UTP and biotin-labeled CTP and UTP (ENZO Diagnostics, Farmingdale, N.Y.). cRNA was purified on an affinity column (RNEASY (i.e., a RNA purification column); Qiagen).
Probe array hybridization and scanning. The Mu6500 GENECHIP (i.e., DNA microarray) array consists of a set of four individual chips, A-D, collectively representing 6,500 murine genes and ESTs. Analysis of the D1 samples was performed by hybridizing the cRNA to the GENECHIP (i.e., DNA microarray) arrays A-D. Probe array hybridizations were carried out as described. cRNA was fragmented to an average size of 50-200 bases, by incubation for 30 min at 94° C. in 40 mM Tris-acetate pH 8.1, 100 mM potassium acetate and 30 mM magnesium acetate.
Samples were then diluted in the hybridization solution (1 M NaCI, 10 mM Tris pH7.6, 0.005% Triton X-100, 0.1 mg/ml herring sperm DNA, BioB-, BioC-, BioD-, cre- control cRNA at a concentration of 1.5, 5, 25, 100 pM, respectively) at a final concentration of 0.05 μg/ml heated at 94° C. for 5 min and placed in the hybridization cartridge (200 μl/chip). Hybridizations were performed at 40° C. for 16 h. Following hybridization the chips were rinsed with 6× SSPE-T (0.9 M NaCI, 60 mM NaH2PO4, 6 mM EDTA, 0.005% Triton X-100 adjusted to pH 7.6) and 0.5× SSPE-T and stained by incubating with 2 μg/ml streptavidin-phycoerythrin (Molecular Probes, Eugene, Oreg.) and 1 mg/ml acetylated BSA (Sigma, St. Louis, Mo.).
The arrays were read at a resolution of 7.5 μm. using a confocal scanner (Affymetrix) and analyzed with the GENECHIP 3.3 GENE EXPRESSION ANALYSIS PROGRAM (i.e., gene expression analysis software) (Affymetrix).
Gene expression analysis was performed on immature, transitional (6 h LPS and TNF-α-activated) and mature (18 h LPS- and TNF-α-activated) D1 cells using GENECHIP (i.e., DNA microarray) oligonucleotide probe arrays representing approximately 6,500 distinct mouse genes and ESTs. The 6,500 probe sets are subdivided in four individual chips, A-D, each containing oligonucleotide probes for about 1,600 genes and ESTs. The hybridized arrays were analyzed using the GENECHIP 3.3 GENE EXPRESSION ANALYSIS PROGRAM (i.e., gene expression analysis software). Data analysis protocols, sensitivity and quantitative aspects of the method have been previously precisely described. In brief, gene probes are represented by 20 perfectly matched 20-mer oligonucleotides (PM) and 20 control oligonucleotides with a single mismatch (MM). Gene expression levels are defined averaging the differences (AvgDiff) between the PM and MM of every probe pair over the entire probe set:
An AvgDiff of 20 approximates the lower value of fluorescence intensity for detected genes. […]

tumor necrosis factor [TNFα]
NC: 1AP3 (Y08026) gene expression, stimulated versus unstimulated D1 cells (6 h) | BTG1 (L16846) gene expression, stimulated versus unstimulated D1 cells (6 h) | BTG3 (Z72000) gene expression, stimulated versus unstimulated D1 cells (6 h) | CD14 (M34510) gene expression, stimulated versus unstimulated D1 cells (6 h) | CD37 (U18372) gene expression, stimulated versus unstimulated D1 cells (6 h) | CD40 (M833312) gene expression, stimulated versus unstimulated D1 cells (6 h) | CYL-1 (M64403) gene expression, stimulated versus unstimulated D1 cells (6 h) | Clqα (X58861) gene expression, stimulated versus unstimulated D1 cells (6 h) | EtAI (X16151) gene expression, stimulated versus unstimulated D1 cells (6 h) | F4-80 (X93328) gene expression, stimulated versus unstimulated D1 cells (6 h) | GAS (U19860) gene expression, stimulated versus unstimulated D1 cells (6 h) | H-2Mα (U35323) gene expression, stimulated versus unstimulated D1 cells (6 h) | H-2Mβ1 (U35323) gene expression, stimulated versus unstimulated D1 cells (6 h) | I-Aα (K01923) gene expression, stimulated versus unstimulated D1 cells (6 h) | I-Aβ (V01527) gene expression, stimulated versus unstimulated D1 cells (6 h) | IL-6 (J03783) gene expression, stimulated versus unstimulated D1 cells (6 h) | IL-12p40 (M86671) gene expression, stimulated versus unstimulated D1 cells (6 h) | IL-IRA (M64404) gene expression, stimulated versus unstimulated D1 cells (6 h) | Jaw1 (U10484) gene expression, stimulated versus unstimulated D1 cells (6 h) | Ki-67 (X82786) gene expression, stimulated versus unstimulated D1 cells (6 h) | MIP-1α (M73061) gene expression, stimulated versus unstimulated D1 cells (6 h) | MIP-2 (X53798) gene expression, stimulated versus unstimulated D1 cells (6 h) | Macrostatin (X68273) gene expression, stimulated versus unstimulated D1 cells (6 h) | OX40L (U12763) gene expression, stimulated versus unstimulated D1 cells (6 h) | PA28 (U60329) gene expression, stimulated versus unstimulated D1 cells (6 h) | RCK (D50494) gene expression, stimulated versus unstimulated D1 cells (6 h) | TAP-1cas (M55637) gene expression, stimulated versus unstimulated D1 cells (6 h) | TIS (D86344) gene expression, stimulated versus unstimulated D1 cells (6 h) | TMP (U25633) gene expression, stimulated versus unstimulated D1 cells (6 h) | TSA1 (U47737) gene expression, stimulated versus unstimulated D1 cells (6 h) | c-1AP-I (L49433) gene expression, stimulated versus unstimulated D1 cells (6 h) | cyclin A (Z26580) gene expression, stimulated versus unstimulated D1 cells (6 h) | cyclin B1 (X64713) gene expression, stimulated versus unstimulated D1 cells (6 h) | cyclin B2 (X66032) gene expression, stimulated versus unstimulated D1 cells (6 h) | cyclin D2 (M83749) gene expression, stimulated versus unstimulated D1 cells (6 h) | serum amyloid (X03505) gene expression, stimulated versus unstimulated D1 cells (6 h) | βig-h3 (L19932) gene expression, stimulated versus unstimulated D1 cells (6 h) | BTG1 (L16846) gene expression, stimulated versus unstimulated D1 cells (18 h) | CD14 (M34510) gene expression, stimulated versus unstimulated D1 cells (18 h) | CD37 (U18372) gene expression, stimulated versus unstimulated D1 cells (18 h) | CYL-1 (M64403) gene expression, stimulated versus unstimulated D1 cells (18 h) | Clqα (X58861) gene expression, stimulated versus unstimulated D1 cells (18 h) | F4-80 (X93328) gene expression, stimulated versus unstimulated D1 cells (18 h) | GAS (U19860) gene expression, stimulated versus unstimulated D1 cells (18 h) | H-2Mα (U35323) gene expression, stimulated versus unstimulated D1 cells (18 h) | H-2Mβ1 (U35323) gene expression, stimulated versus unstimulated D1 cells (18 h) | I-Aα (K01923) gene expression, stimulated versus unstimulated D1 cells (18 h) | I-Aβ (V01527) gene expression, stimulated versus unstimulated D1 cells (18 h) | IL-6 (J03783) gene expression, stimulated versus unstimulated D1 cells (18 h) | IL-12p40 (M86671) gene expression, stimulated versus unstimulated D1 cells (18 h) | IL-IRA (M64404) gene expression, stimulated versus unstimulated D1 cells (18 h) | MIP-1α (M73061) gene expression, stimulated versus unstimulated D1 cells (18 h) | MIP-2 (X53798) gene expression, stimulated versus unstimulated D1 cells (18 h) | Macrostatin (X68273) gene expression, stimulated versus unstimulated D1 cells (18 h) | OX40L (U12763) gene expression, stimulated versus unstimulated D1 cells (18 h) | PA28 (U60329) gene expression, stimulated versus unstimulated D1 cells (18 h) | RCK (D50494) gene expression, stimulated versus unstimulated D1 cells (18 h) | TAP-1cas (M55637) gene expression, stimulated versus unstimulated D1 cells (18 h) | TIS (D86344) gene expression, stimulated versus unstimulated D1 cells (18 h) | TSA1 (U47737) gene expression, stimulated versus unstimulated D1 cells (18 h) | cyclin A (Z26580) gene expression, stimulated versus unstimulated D1 cells (18 h) | cyclin D2 (M83749) gene expression, stimulated versus unstimulated D1 cells (18 h) | mMCM2 (D86725) gene expression, stimulated versus unstimulated D1 cells (18 h) | properdin (X12905) gene expression, stimulated versus unstimulated D1 cells (18 h) | βig-h3 (L19932) gene expression, stimulated versus unstimulated D1 cells (18 h)
